Experimental data reported in US11702427B2 (priority 2018, dated 2023).

Tested on: HBsAg
Experiment: HBsAg assay: inhibition of HBsAg in HepG2.2.15 cells (CLIA immunoassay of supernatant)
Type: cell-based, hepatitis B virus (HBV)
Conditions: Hepatitis B virus, HepG2.2.15, 144 h, read-out: sAg EC50, HepG2.2.15 cells; supernatant collected at day 6 after exposure; HBsAg chemiluminescence immunoassay
Protocol: Inhibition of HBsAg was determined in HepG2.2.15 cells. Cells were maintained in culture medium containing 10% fetal calf serum, […], Glutamine, penicillin/streptomycin. Cells were seeded in 96-well collagen-coated plate at a density of 30,000 cells/well. Serially diluted compounds were added to cells next day at the final DMSO concentration of 0.5%. Cells were incubated with compounds for 2-3 days, after which medium was removed. Fresh medium containing compounds was added to cells for additional 3-4 days. At day 6 after exposure of compounds, supernatant was collected, the HBsAg immunoassay (microplate-based chemiluminescence immunoassay kits, CLIA, Autobio Diagnosics Co., Zhengzhou, China, Catalog #CL0310-2) was used to determine the level of HBsAg according to manufactory instruction. Dose-response curves were generated and the EC50 value (effective concentrations that achieved 50% inhibitory effect) were determined using XLfit software. In addition, cells can be seeded at a density of 5,000 cells/well for determination of cell viability in the presence and absence of compounds by using CellTiter-Glo reagent (Promega). Tables 1-3 show EC50 values obtained by the HBsAg assay for selected compounds.

Compound	EC50 [µM]
COCCCOc1cc2c(nc1C1CC1)-c1[nH]c(=O)c(C(=O)O)c(O)c1C(C(C)C)C2 (stereo not shown) [Example 49, 9-Cyclopropyl-4-hydroxy-5-isopropyl-8-(3-methoxypropoxy)-2-oxo-1,2,5,6-tetrahydro-1,10-phenanthroline-3-carboxylicacid]	0.001
CCCc1nc2c(cc1OCCCOC)CC(C(C)C)c1c-2[nH]c(=O)c(C(=O)O)c1O (stereo not shown) [Example 50, 4-Hydroxy-5-isopropyl-8-(3-methoxypropoxy)-2-oxo-9-propyl-1,2,5,6-tetrahydro-1,10-phenanthroline-3-carboxylic acid]	0.002
COCCCOc1cc2c(nc1NCCOC)-c1[nH]c(=O)c(C(=O)O)c(O)c1C(C(C)C)C2 (stereo not shown) [Example 51, 4-Hydroxy-5-isopropyl-9-((2-methoxyethyl)amino)-8-(3-methoxypropoxy)-2-oxo-1,2,5,6-tetrahydro-1,10-phenanthroline-3-carboxylicacid]	10
COCCCOc1cc2c(nc1NCCOC)-c1[nH]c(=O)c(C(=O)NCCOC)c(O)c1C(C(C)C)C2 (stereo not shown) [Example 52, 4-Hydroxy-5-isopropyl-N-(2-methoxyethyl)-9-((2-methoxyethyl)amino)-8-(3-methoxypropoxy)-2-oxo-1,2,5,6-tetrahydro-1,10-phenanthroline-3-carboxamide]	13
CNc1nc2c(cc1OCCCOC)CC(C(C)C)c1c-2[nH]c(=O)c(C(=O)O)c1O (stereo not shown) [Example 53, 4-Hydroxy-5-isopropyl-8-(3-methoxypropoxy)-9-(methylamino)-2-oxo-1,2,5,6-tetrahydro-1,10-phenanthroline-3-carboxylic acid]	0.015
COCCCOc1cc2c(nc1N(C)C)-c1[nH]c(=O)c(C(=O)O)c(O)c1C(C(C)C)C2 (stereo not shown) [Example 54, 9-(Dimethylamino)-4-hydroxy-5-isopropyl-8-(3-methoxypropoxy)-2-oxo-1,2,5,6-tetrahydro-1,10-phenanthroline-3-carboxylicacid]	0.01
CNc1nc2c(cc1OCCCOC)CC(C(C)C)c1cc(C(=O)O)c(=O)[nH]c1-2 (stereo not shown) [Example 55, 5-Isopropyl-8-(3-methoxypropoxy)-9-(methylamino)-2-oxo-1,2,5,6-tetrahydro-1,10-phenanthroline-3-carboxylicacid]	0.002
COCCCOc1cc2c(nc1C1CC1)-c1[nH]c(=O)c(C(=O)O)cc1C(C(C)C)C2 (stereo not shown) [Example 56, 9-Cyclopropyl-5-isopropyl-8-(3-methoxypropoxy)-2-oxo-1,2,5,6-tetrahydro-1,10-phenanthroline-3-carboxylicacid]	0.001
COCCCOc1cc2c(cc1OC)-c1[nH]c(=O)c(-c3ncn[nH]3)c(O)c1C(C(C)C)C2 (stereo not shown) [Example 57, 4-Hydroxy-5-isopropyl-9-methoxy-8-(3-methoxypropoxy)-3-(1H-1,2,4-triazol-5-yl)-5,6-dihydrobenzo[h]quinolin-2(1H)-one]	0.011
COCCCOc1cc2c(cc1OC)-c1[nH]c(=O)c(C(N)=O)c(O)c1C(C(C)C)C2 (stereo not shown) [Example 58, 4-Hydroxy-5-isopropyl-9-methoxy-8-(3-methoxypropoxy)-2-oxo-1,2,5,6-tetrahydrobenzo[h]quinoline-3-carboxamide]	0.02
COCCCOc1cc2c(nc1OC)-c1[nH]c(=O)c(C(N)=O)c(O)c1C(C(C)(C)C)C2 (stereo not shown) [Example 59, 5-(tert-Butyl)-4-hydroxy-9-methoxy-8-(3-methoxypropoxy)-2-oxo-1,2,5,6-tetrahydro-1,10-phenanthroline-3-carboxamide]	0.003
COCCCOc1cc2c(nc1OC)-c1[nH]c(=O)c(C(N)=O)cc1C(C(C)(C)C)C2 (stereo not shown) [Example 62, 5-(tert-Butyl)-9-methoxy-8-(3-methoxypropoxy)-2-oxo-1,2,5,6-tetrahydro-1,10-phenanthroline-3-carboxamide]	0.025
CNC(=O)c1c(O)c2c([nH]c1=O)-c1nc(OC)c(OCCCOC)cc1CC2C(C)(C)C (stereo not shown) [Example 63, 5-(tert-Butyl)-4-hydroxy-9-methoxy-8-(3-methoxypropoxy)-N-methyl-2-oxo-1,2,5,6-tetrahydro-1,10-phenanthroline-3-carboxamide]	0.018
